In the NIST ThermoML archive (doi:10.1021/je050010l):

Tests used:
[1] = xn = mol fraction of the nth substance listed; details: 100.8 kPa, Liquid; for viscosity: Capillary tube (Ostwald / Ubbelohde) method
[2] = refractive index (Na D-line) (dimensionless); xn = mol fraction of the nth substance listed; details: 100.8 kPa, Liquid, Standard Abbe refractometry

CC(C)=O [acetone] + CCO
Details | mass density, 288.15 K [kg/m3] | mass density, 298.15 K [kg/m3] | mass density, 308.15 K [kg/m3] | refractive index, 288.15 K | refractive index, 298.15 K | refractive index, 308.15 K | viscosity, 288.15 K [mPa·s] | viscosity, 298.15 K [mPa·s] | viscosity, 308.15 K [mPa·s]
[1], x1 = 0.05 | 794.4 | 785.59 | 776.66 | – | – | – | 1.126 | 0.944 | 0.793
[1], x1 = 0.1 | 794.86 | 785.84 | 776.66 | – | – | – | 0.985 | 0.829 | 0.703
[1], x1 = 0.15 | 795.23 | 786 | 776.61 | – | – | – | 0.873 | 0.741 | 0.632
[1], x1 = 0.2 | 795.5 | 786.08 | 776.53 | – | – | – | 0.783 | 0.669 | 0.575
[1], x1 = 0.25 | 795.75 | 786.16 | 776.41 | – | – | – | 0.709 | 0.61 | 0.527
[1], x1 = 0.3 | 795.99 | 786.23 | 776.28 | – | – | – | 0.649 | 0.561 | 0.487
[1], x1 = 0.35 | 796.18 | 786.24 | 776.12 | – | – | – | 0.598 | 0.521 | 0.453
[1], x1 = 0.4 | 796.34 | 786.23 | 775.96 | – | – | – | 0.556 | 0.486 | 0.426
[1], x1 = 0.45 | 796.46 | 786.21 | 775.79 | – | – | – | 0.518 | 0.457 | 0.403
[1], x1 = 0.4999 | 796.57 | 786.19 | 775.63 | – | – | – | 0.488 | 0.431 | 0.383
[1], x1 = 0.55 | 796.68 | 786.17 | 775.47 | – | – | – | 0.461 | 0.409 | 0.364
[1], x1 = 0.6 | 796.77 | 786.13 | 775.3 | – | – | – | 0.438 | 0.39 | 0.349
[1], x1 = 0.65 | 796.84 | 786.07 | 775.13 | – | – | – | 0.418 | 0.373 | 0.335
[1], x1 = 0.7 | 796.86 | 786 | 774.96 | – | – | – | 0.401 | 0.358 | 0.322
[1], x1 = 0.75 | 796.88 | 785.9 | 774.77 | – | – | – | 0.386 | 0.345 | 0.312
[1], x1 = 0.8 | 796.91 | 785.84 | 774.59 | – | – | – | 0.373 | 0.334 | 0.303
[1], x1 = 0.8501 | 796.9 | 785.73 | 774.4 | – | – | – | 0.363 | 0.325 | 0.295
[1], x1 = 0.9 | 796.92 | 785.66 | 774.23 | – | – | – | 0.353 | 0.317 | 0.288
[1], x1 = 0.95 | 796.91 | 785.57 | 774.08 | – | – | – | 0.344 | 0.309 | 0.281
[1], x1 = 1 | 796.87 | 785.47 | 773.91 | – | – | – | 0.334 | 0.302 | 0.274
[2], x1 = 0.05 | – | – | – | 1.36354 | 1.35919 | 1.35486 | – | – | –
[2], x1 = 0.1 | – | – | – | 1.3636 | 1.35915 | 1.3547 | – | – | –
[2], x1 = 0.15 | – | – | – | 1.36366 | 1.35909 | 1.35454 | – | – | –
[2], x1 = 0.2 | – | – | – | 1.36361 | 1.35899 | 1.35435 | – | – | –
[2], x1 = 0.25 | – | – | – | 1.36357 | 1.35887 | 1.35414 | – | – | –
[2], x1 = 0.3 | – | – | – | 1.3635 | 1.35873 | 1.35391 | – | – | –
[2], x1 = 0.35 | – | – | – | 1.36343 | 1.35857 | 1.35369 | – | – | –
[2], x1 = 0.4 | – | – | – | 1.36334 | 1.35842 | 1.35346 | – | – | –
[2], x1 = 0.45 | – | – | – | 1.36324 | 1.35826 | 1.35324 | – | – | –
[2], x1 = 0.4999 | – | – | – | 1.36313 | 1.35809 | 1.353 | – | – | –
[2], x1 = 0.55 | – | – | – | 1.36301 | 1.3579 | 1.35276 | – | – | –
[2], x1 = 0.6 | – | – | – | 1.36289 | 1.35771 | 1.35251 | – | – | –
[2], x1 = 0.65 | – | – | – | 1.36275 | 1.35753 | 1.35228 | – | – | –
[2], x1 = 0.7 | – | – | – | 1.36261 | 1.35734 | 1.35203 | – | – | –
[2], x1 = 0.75 | – | – | – | 1.36246 | 1.35713 | 1.35177 | – | – | –
[2], x1 = 0.8 | – | – | – | 1.3623 | 1.35692 | 1.35152 | – | – | –
[2], x1 = 0.8501 | – | – | – | 1.36214 | 1.35673 | 1.35127 | – | – | –
[2], x1 = 0.9 | – | – | – | 1.36198 | 1.35651 | 1.35102 | – | – | –
[2], x1 = 0.95 | – | – | – | 1.36177 | 1.35629 | 1.3508 | – | – | –
[2], x1 = 1 | – | – | – | 1.36152 | 1.35605 | 1.35057 | – | – | –

CC(C)CC(C)(C)C [2,2,4-trimethylpentane] + CCO
Details | mass density, 288.15 K [kg/m3] | mass density, 298.15 K [kg/m3] | mass density, 308.15 K [kg/m3] | refractive index, 288.15 K | refractive index, 298.15 K | refractive index, 308.15 K | viscosity, 288.15 K [mPa·s] | viscosity, 298.15 K [mPa·s] | viscosity, 308.15 K [mPa·s]
[1], x2 = 0 | 695.95 | 687.74 | 679.41 | – | – | – | 0.537 | 0.48 | 0.432
[1], x2 = 0.0502 | 697.2 | 688.84 | 680.36 | – | – | – | 0.532 | 0.473 | 0.424
[1], x2 = 0.1 | 698.76 | 690.33 | 681.76 | – | – | – | 0.535 | 0.476 | 0.426
[1], x2 = 0.15 | 700.55 | 692.11 | 683.52 | – | – | – | 0.542 | 0.48 | 0.429
[1], x2 = 0.2 | 702.53 | 694.07 | 685.43 | – | – | – | 0.551 | 0.487 | 0.434
[1], x2 = 0.25 | 704.71 | 696.21 | 687.56 | – | – | – | 0.564 | 0.497 | 0.441
[1], x2 = 0.3 | 707.1 | 698.57 | 689.88 | – | – | – | 0.58 | 0.51 | 0.451
[1], x2 = 0.35 | 709.71 | 701.17 | 692.45 | – | – | – | 0.601 | 0.526 | 0.462
[1], x2 = 0.4 | 712.6 | 704.03 | 695.3 | – | – | – | 0.625 | 0.543 | 0.476
[1], x2 = 0.45 | 715.8 | 707.2 | 698.44 | – | – | – | 0.652 | 0.565 | 0.492
[1], x2 = 0.5 | 719.31 | 710.68 | 701.91 | – | – | – | 0.682 | 0.588 | 0.51
[1], x2 = 0.55 | 723.22 | 714.59 | 705.8 | – | – | – | 0.718 | 0.615 | 0.531
[1], x2 = 0.6 | 727.55 | 718.9 | 710.11 | – | – | – | 0.755 | 0.645 | 0.554
[1], x2 = 0.65 | 732.37 | 723.73 | 714.93 | – | – | – | 0.797 | 0.677 | 0.58
[1], x2 = 0.7 | 737.81 | 729.14 | 720.34 | – | – | – | 0.843 | 0.715 | 0.609
[1], x2 = 0.75 | 743.99 | 735.34 | 726.54 | – | – | – | 0.894 | 0.755 | 0.642
[1], x2 = 0.8 | 751.11 | 742.37 | 733.58 | – | – | – | 0.952 | 0.801 | 0.678
[1], x2 = 0.85 | 759.27 | 750.54 | 741.75 | – | – | – | 1.018 | 0.854 | 0.72
[1], x2 = 0.9 | 768.81 | 760.17 | 751.44 | – | – | – | 1.095 | 0.915 | 0.769
[1], x2 = 0.95 | 780.26 | 771.59 | 762.84 | – | – | – | 1.19 | 0.991 | 0.828
[2], x2 = 0 | – | – | – | 1.39404 | 1.389 | 1.38395 | – | – | –
[2], x2 = 0.0502 | – | – | – | 1.39319 | 1.3881 | 1.38297 | – | – | –
[2], x2 = 0.1 | – | – | – | 1.39241 | 1.3873 | 1.38217 | – | – | –
[2], x2 = 0.15 | – | – | – | 1.39162 | 1.38651 | 1.38138 | – | – | –
[2], x2 = 0.2 | – | – | – | 1.39081 | 1.38569 | 1.38056 | – | – | –
[2], x2 = 0.25 | – | – | – | 1.38996 | 1.38485 | 1.37972 | – | – | –
[2], x2 = 0.3 | – | – | – | 1.38907 | 1.38397 | 1.37885 | – | – | –
[2], x2 = 0.35 | – | – | – | 1.38811 | 1.38304 | 1.37794 | – | – | –
[2], x2 = 0.4 | – | – | – | 1.38709 | 1.38204 | 1.37696 | – | – | –
[2], x2 = 0.45 | – | – | – | 1.38597 | 1.38099 | 1.37593 | – | – | –
[2], x2 = 0.5 | – | – | – | 1.38479 | 1.37984 | 1.3748 | – | – | –
[2], x2 = 0.55 | – | – | – | 1.3835 | 1.37858 | 1.37358 | – | – | –
[2], x2 = 0.6 | – | – | – | 1.38209 | 1.37722 | 1.37227 | – | – | –
[2], x2 = 0.65 | – | – | – | 1.38055 | 1.37573 | 1.37083 | – | – | –
[2], x2 = 0.7 | – | – | – | 1.37884 | 1.37408 | 1.36922 | – | – | –
[2], x2 = 0.75 | – | – | – | 1.37694 | 1.37225 | 1.36745 | – | – | –
[2], x2 = 0.8 | – | – | – | 1.37484 | 1.3702 | 1.3655 | – | – | –
[2], x2 = 0.85 | – | – | – | 1.37249 | 1.36792 | 1.3633 | – | – | –
[2], x2 = 0.9 | – | – | – | 1.36984 | 1.36536 | 1.36085 | – | – | –
[2], x2 = 0.95 | – | – | – | 1.36684 | 1.36248 | 1.35812 | – | – | –
